Reference: PubChem BioAssay (NCI)
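Each compound was tested at five concentrations against cells in 96-well plates for 48 hours. TGI is the concentration that stops growth completely.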

Legend:
Test in all cases: NCI tumour cell line growth inhibition, 48 h
OVCAR-5 ovarian = system: OVCAR-5 ovarian
IGROV1 ovarian = system: IGROV1 ovarian
MOLT-4 leukemia = system: MOLT-4 leukemia
UACC-62 melanoma = system: UACC-62 melanoma
K-562 leukemia = system: K-562 leukemia
U251 CNS = system: U251 CNS
M14 melanoma = system: M14 melanoma
SF-268 CNS = system: SF-268 CNS
HL-60(TB) leukemia = system: HL-60(TB) leukemia
A498 renal = system: A498 renal
786-0 renal = system: 786-0 renal

Structure (SMILES) | TGI (OVCAR-5 ovarian) | TGI (IGROV1 ovarian) | TGI (MOLT-4 leukemia) | TGI (UACC-62 melanoma) | TGI (K-562 leukemia) | TGI (U251 CNS) | TGI (M14 melanoma) | TGI (SF-268 CNS) | TGI (HL-60(TB) leukemia) | TGI (A498 renal) | TGI (786-0 renal)
C=CCn1c(-c2ccc(Cl)cc2)csc1=Nc1ccccc1OC | > 100 µM | > 100 µM | 14.9 µM | > 94 µM | 19.4 µM | > 100 µM | > 87.9 µM | > 100 µM | 86.3 µM | > 100 µM | > 100 µM
O=C(C1OC1c1cccc([N+](=O)[O-])c1)C12CC3CC(CC(C3)C1)C2 (stereo not given) | 18.9 µM | 20.2 µM | > 22.8 µM | 14.1 µM | 13.2 µM | 9.64 µM | 22.8 µM | 9.18 µM | 15.8 µM | 14.2 µM | 7.1 µM
Cc1cc(N(CCC#N)CCC#N)ccc1/C(N=Nc1ccc([N+](=O)[O-])cc1)=N\NC(=O)c1ccccc1 | > 100 µM | > 100 µM | > 100 µM | > 100 µM | > 100 µM | > 100 µM | > 100 µM | > 100 µM | > 100 µM | 74 µM | > 100 µM
NC(N)=N/N=C/c1c(-c2cc([N+](=O)[O-])c(Cl)cc2Cl)nc2n1CCS2 | > 100 µM | 36.4 µM | 58.6 µM | 97.1 µM | > 100 µM | > 100 µM | > 100 µM | > 100 µM | 41 µM | > 100 µM | > 100 µM
O=C1NC(=Nc2ccccc2Cl)N/C1=C\c1ccc(Cl)cc1Cl | > 100 µM | > 100 µM | > 100 µM | > 100 µM | > 100 µM | > 100 µM | > 100 µM | > 100 µM | 1.84 µM | > 100 µM | > 100 µM
CCNC(=S)NNC(=O)CSc1nc2ccc(I)cc2c(=O)n1Cc1ccccc1 | > 100 µM | > 100 µM | > 100 µM | > 100 µM | > 100 µM | > 100 µM | > 100 µM | > 100 µM | > 34.7 µM | > 78.2 µM | > 100 µM
Cc1cc(NS(=O)(=O)c2ccc(Nc3c4ccccc4nc4c(C(=O)NCCO)cccc34)cc2)no1 | > 100 µM | > 100 µM | > 100 µM | > 100 µM | > 100 µM | > 100 µM | 70 µM | > 100 µM | > 100 µM | > 100 µM | > 100 µM
CCOC(=O)c1nc2cc(C(F)(F)F)ccc2nc1Oc1ccc(F)cc1 | > 100 µM | > 100 µM | > 100 µM | > 100 µM | > 100 µM | > 100 µM | > 100 µM | > 100 µM | > 100 µM | > 100 µM | > 100 µM
COc1ccc(/C=C/C(=O)Oc2ccccc2OC)cc1 | 98.2 µM | > 51.2 µM | 3.44 µM | 97.9 µM | > 100 µM | > 100 µM | > 100 µM | 4.71 µM | > 32.5 µM | > 100 µM | > 67 µM
NS(=O)(=O)c1nnc(NS(=O)(=O)c2ccc([N+](=O)[O-])cc2)s1 | > 100 µM | > 100 µM | > 100 µM | > 100 µM | > 100 µM | > 100 µM | > 100 µM | > 100 µM | > 100 µM | > 100 µM | > 100 µM
COC(=O)CNC(=O)CCC(C)[C@H]1CCC2C3C(C[C@H](OC(C)=O)[C@@]21C)[C@@]1(C)CCC2(C[C@H]1C[C@H]3OC(C)=O)OOC1(CCCCC1)OO2 (stereo not given in full) | 6.62 µM | 2.98 µM | 11.9 µM | 21.7 µM | 9.51 µM | 3.41 µM | 8.28 µM | 3.59 µM | 5.1 µM | 34.4 µM | 3.48 µM
C1=NCCOCCN=Cc2ccc(cc2)OCc2cccc(n2)COc2ccc1cc2 | > 100 µM | > 100 µM | > 100 µM | > 100 µM | > 100 µM | > 100 µM | > 100 µM | > 100 µM | > 100 µM | > 100 µM | > 100 µM
CC(C)=C[C@@H]1O[C@H](O)[C@@H]([C@H]2CC[C@@]3(C)[C@@H]4CC[C@H]5C(C)(C)C(=O)CC[C@@]56C[C@@]46CC[C@]23C)[C@@H]1O | 57.8 µM | 35.4 µM | 32.4 µM | 35.5 µM | 38.4 µM | 34.8 µM | 57.3 µM | 39.4 µM | 30.2 µM | 32.8 µM | 27.6 µM
NCCNC(=O)CN(CC(=O)O)C1CCCCC1N(CC(=O)O)CC(=O)O (stereo not given) | > 100 µM | > 100 µM | > 100 µM | > 100 µM | > 100 µM | > 100 µM | > 100 µM | > 100 µM | > 100 µM | > 100 µM | > 100 µM
C=CC[C@]1(C2=NC(C)(C)CO2)c2ccccc2-c2ccccc2[C@H]1C(C)=O | 51 µM | > 48.6 µM | 50 µM | 19.2 µM | 29.8 µM | 21.6 µM | 21.7 µM | 29.3 µM | 15.8 µM | 21.1 µM | 24.9 µM
